Values joined by “and” are separate entries in the source; they are usually repeats but may differ in a detail not shown here. Identical values can stand only once.
Conditions: Crystal, Closed cell (Static) method

c1ccc2ccccc2c1 [naphthalene]
Conditions | vapor or sublimation pressure
258.48 K | 0.00011 kPa
258.49 K | 0.00011 kPa
263.48 K | 0.00022 kPa
263.49 K | 0.00023 kPa
268.48 K | 0.00042 kPa and 0.00041 kPa and 0.00043 kPa
273.48 K | 0.00078 kPa and 0.00077 kPa
273.49 K | 0.00078 kPa and 0.00077 kPa
273.68 K | 0.0008 kPa and 0.00081 kPa
278.48 K | 0.00137 kPa and 0.00138 kPa
278.49 K | 0.00138 kPa [middle of 4 runs]
283.49 K | 0.00241 kPa
288.49 K | 0.00411 kPa and 0.0041 kPa
293.49 K | 0.00688 kPa
298.49 K | 0.0114 kPa and 0.0113 kPa
303.5 K | 0.0183 kPa and 0.0182 kPa
308.51 K | 0.029 kPa
313.52 K | 0.0454 kPa and 0.0455 kPa
